In patent US20140088184A1 (priority 2011, published 2014):
Like-named read-outs stand apart in the source and are kept apart here.

Legend:
[1] = system: JFH1-Rluc virus; assay: microbe, parasite or virus in culture; format: cell-based, hepatitis C virus (isolate JFH1, genotype 2a); details: for relative viral infection / inhibition of viral infection: 50 μM during 2 h infection of Huh-7 cells, luciferase 48 h after infection; for relative viral infection: compared with DMSO; for inhibition of viral infection: EGCG from CALBIOCHEM or EXTRASYNTHESE
[2] = system: HCVpp expressing envelope proteins E1 and E2 of the HCV virus of genotypes 1a, 1b, 2a, 2b, 3, 4, 5, 6; format: cell-based, hepatitis C virus; details: for relative infection: vs DMSO
[3] = system: JFH1-Rluc virus; assay: Split-up of HCV entry steps (attachment, receptor interaction, endocytosis/fusion), JFH-Luc in Huh-7 cells; details: for step of HCV entry inhibited: entry split up into its three constituent steps, general statement of the description
[4] = system: HCV JFH1; assay: Successive infections with supernatants of infected cells (passages P0 to P4); details: 50 μM EGCG, passages P0 to P4, 48 h each
[5] = system: JFH1 virus; assay: Cell to cell transmission of HCVcc (JFH1) in Huh-7 cells under agarose; format: cell-based, hepatitis C virus; details: EGCG 50 μM in 1% agarose medium, 72 h post-infection; control sites average 45
Experimental: The Huh-7 cells cultured in 24 well plates are infected with HCVcc over a period of 2 hours. The inoculum was eliminated and replaced by DMEM medium supplemented with GLUTAMAX®-1,10% of FCS and 1% low melting point agarose gel (SeaPlaque® Agarose marketed by LONZA®) containing EGCG (50 μM) or an equivalent volume of Dimethyl Sulfoxide (DMSO) as a control. The cells are incubated at 37° C. over a period of 3 days at the end of which the agarose is eliminated and the infection sites are detected using indirect immunofluorescence for HCV E1 protein as previously described.
A second mode of viral infection is the transmission of the virus from cell to cell. […] The agarose prevents infection of cells by the virus secreted into the medium and thus makes it possible to observe the cell to cell transmission of the virus by virtue of the cells being in contact amongst themselves.
At seventy-two hours post-infection, the cells were fixed and infection was detected by immunofluorescence after labelling with an anti-E1 antibody. A step of detection is then carried out with a Cy3 coupled secondary antibody. The nuclei are stained with DAPI staining. The number of cells per infection site was quantified (FIG. 5). In the presence of EGCG the infection sites are much smaller. They contain an average of 3-4 infected cells showing that the virus has not propagated after infecting a cell. […]

[6] = system: VSVpp (virus like particles expressing the envelope protein of VSV); format: cell-based, vesicular stomatitis virus
[7] = system: HCV viral replication; assay: Viral replication (results not shown); format: cell-based, hepatitis C virus
[8] = system: HCVcc; assay: Quantitative binding test: HCVcc attachment to Huh-7 cells, HCV RNA by quantitative RT-PCR; format: cell-based, hepatitis C virus; details: 1 hour at 4° C., MOI 10, vs DMSO; for virus attachment to the cell surface: 50 μM
Experimental: HCVcc. For the quantitative “binding” experiments, the HCVcc virus was mass produced and purified by concentration and separation in a gradient of iodixanol. Supernatants of infected cells were precipitated with 8% PEG 6000 at 4° C. overnight and centrifuged for 25 minutes at 10 000 rpm. The pellets were resuspended in 1 mL, of PBS, loaded on a continuous iodixanol gradient (10-40%), and centrifuged at 36 000 rpm for 16 hours at 4° C. Fractions of 500 μL were collected and the titre of each fraction was determined. The most infectious fractions were combined in order to perform the experiments.
Quantitative “Bindinq” Test. The HCVcc virus was contacted with the Huh-7 cells for 1 hour at 4° C. in the presence of EGCG (50 μM), delphinidin chloride (50 μM) or porcine intestinal heparin (500 ug/mL). After 3 washes with PBS, the total RNAs (viral and cellular) were extracted using the NucleoSpin RNA II kit (Macherey-Nagel, Düren, Germany) and the HCV RNA quantified by quantitative RT-PCR (Castelain et al, J Clin Virol 2004). Heparin was used in parallel as a control.
In order to determine whether the step of attachment to the cell surface was inhibited by EGCG, quantitative “binding” (or attachment) tests have been carried out. The action of delphinidin chloride was tested in parallel. Heparin, a known inhibitor of HCV attachment to the cell surface, was used as a positive control. The cells were incubated with HCVcc purified to a multiplicity of infection of 10 for 1 hour at 4° C. in the presence of DMSO, 50 M of EGCG, 50 μM of delphinidin chloride or 500 μg/mL of heparin. The cells were washed 3 times with cold PBS and the total RNA extracted. The amount of virus fixed was determined by quantifying the viral genomic RNA by means of quantitative RT-PCR.

[9] = system: bovine viral diarrhoea virus (BVDV); format: cell-based; details: MDBK cells, EGCG 50 μM vs DMSO
[10] = system: HCVcc; assay: microbe, parasite or virus in culture; format: cell-based
[11] = system: Sindbis virus (SINV); format: cell-based; details: Huh-7 cells, EGCG 50 μM vs DMSO
[12] = system: yellow fever virus (YFV); format: cell-based; details: Huh-7 cells, EGCG 50 μM vs DMSO
[13] = genotypes 1a, 1b, 2a, 2b, 3, 4, 5 and 6, general statement of the description, no concentration

Oc1cc(O)c2c(c1)O[C@H](c1ccc(O)c(O)c1)[C@@H](O)C2 [(+)-catechin, reference compound]
relative viral infection [1]: identical to that observed for DMSO

Oc1cc(O)c2c(c1)O[C@H](c1ccc(O)c(O)c1)[C@H](O)C2 [(−)-epicatechin, reference compound]
relative viral infection [1]: identical to that observed for DMSO

O=C(O[C@@H]1Cc2c(O)cc(O)cc2O[C@@H]1c1ccc(O)c(O)c1)c1cc(O)c(O)c(O)c1 [ECG, (2R,3R)-2-(3,4-Dihydroxyphenyl)-3,4-dihydro-1(2H)-benzopyran-3,5,7-triol 3-(3,4,5-trihydroxybenzoate)]
inhibitory effect across viral genotypes of HCV [2, 13]: observed in all the viral genotypes of HCV | inhibition of viral infection [1]: about 40% | step of HCV entry inhibited [3]: only the step of attachment is inhibited

Oc1cc(O)c2c(c1)O[C@H](c1cc(O)c(O)c(O)c1)[C@H](O)C2 [EGC, (2R,3R)-2-(3,4,5-trihydroxyphenyl) chroman-3,5,7-triol]
inhibitory effect across viral genotypes of HCV [2, 13]: observed in all the viral genotypes of HCV | inhibition of viral infection [1]: ~80% | step of HCV entry inhibited [3]: only the step of attachment is inhibited

O=C(O[C@@H]1Cc2c(O)cc(O)cc2O[C@@H]1c1cc(O)c(O)c(O)c1)c1cc(O)c(O)c(O)c1 [EGCG, (2R,3R)-5,7-dihydroxy-2-(3,4,5-trihydroxyphenyl)-3,4-dihydro-2H-chromen-3-yl 3,4,5-trihydroxybenzoate]
effect on the infection by HCVpp of all genotypes tested ([2]; EGCG 50 μM): inhibitory effect | relative infection ([2]; HCVpp genotype 1b, EGCG 50 μM): substantially nil | relative infection ([2]; HCVpp genotype 2a, EGCG 50 μM): substantially nil | relative infection ([2]; HCVpp genotype 2b, EGCG 50 μM): substantially nil | relative infection ([2]; HCVpp genotype 4, EGCG 50 μM): substantially nil | inhibitory effect across viral genotypes of HCV [2, 13]: observed in all the viral genotypes of HCV | percentage of cells infected in each passage of supernatant [4]: elimination of HCV from the culture supernatant from the third passage onwards and the complete elimination in the fourth passage | number of cells per infection site (average) [5]: 3-4 infected cells | effect on infection by the VSVpp [6]: no effect | relative infection rate [6]: 85% | viral replication [7]: not affected | virus attachment to the cell surface [8]: strong decrease | effect on cell infection [9]: does not have an inhibitory effect | decrease of viral infection (factor) ([1]; 50 μM EGCG during 2 h infection of Huh-7 cells): greater than 10 | inhibition of viral infection [1]: greater than 95% | IC50 ([1]; Hepatitis C virus, Huh-7, read-out: IC50 (viral infection)): 5 µM | effect on viral entry ([1]; non infected cells treated with the molecule before or after infection): no effect | inhibitory effect with pretreated virus ([1]; virus incubated 45 minutes with 50 μM EGCG before infection): increase in the inhibitory effect | IC50 ([10]; Hepatitis C virus, Huh-7; read-out: IC50 (concentration inhibiting 50% infection)): ~11 µM | infection (luciferase activity) ([3]; 50 μM EGCG during all three steps of viral entry (Sample 5)): significant reduction of infection | infection (luciferase activity) ([3]; 50 μM EGCG during the step of attachment, 1 h at 4° C. (Sample 2)): significant reduction of infection | infection (luciferase activity) ([3]; 50 μM EGCG during the step of endocytosis or fusion, 1 h at 37° C. (Sample 4)): does not seem to have any effect | infection (luciferase activity) ([3]; 50 μM EGCG during the step of interaction with host cell receptors (Sample 3)): does not seem to have any effect | step of HCV entry inhibited [3]: only the step of attachment is inhibited | effect on cell infection [11]: does not have an inhibitory effect | effect on cell infection [12]: does not have an inhibitory effect

Oc1cc(O)c2cc(O)c(-c3cc(O)c(O)c(O)c3)[o+]c2c1 [delphinidin chloride, 3,3′,4′,5,5′,7-Hexahydroxyflavylium chloride]
inhibitory effect across viral genotypes of HCV [2]: observed in all the viral genotypes of HCV | virus attachment to the cell surface [8]: strong decrease | IC50 ([10]; Hepatitis C virus, Huh-7, read-out: IC50 (concentration inhibiting 50% infection)): ~3.5 µM | step of HCV entry inhibited [3]: only the step of attachment is inhibited

heparin [reference compound]
attachment of the virus to the surface of cells ([8]; 500 μg/mL, positive control): greatly reduced
